Reference: patent US8901118B2, “Compounds and methods for kinase modulation, and indications therefor” (Plexxikon Inc., priority 2010, dated 2014)

How the values were obtained:
CYP2C9 = CYP2C9 (Homo sapiens, UniProt P11712); test: CYP2C9 inhibition (fluorescent substrate MFC); assay type: in vitro ADME; settings: read-out: Cyp IC50 2C9
Summary of the method: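 Compounds, serially diluted 1:1 over 10 points in NADPH-regenerating cofactor mix with 5% acetonitrile, were preincubated 10 min at 37 °C, then run with enzyme and substrate at 37 °C (CYP1A2 15 min; CYP2C9 45 min; CYP2C19, CYP2D6 30 min). Product fluorescence gave IC50s.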

BCR-NTRK2 BaF3 cells = molecular target: T1, BCR-NTRK2 BaF3 cells (Homo sapiens, UniProt Q16620); test: BaF3 BCR-NTRK2 cell proliferation assay (ATPlite); assay type: cell-based; settings: read-out: Inhibition of Cell Proliferation IC50, BCR/BaF3 TrkB
T1 construct: fused on or other part: P11274 (Breakpoint cluster region protein)
Summary of the method: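 BaF3 lines were seeded at 10,000 cells/well in growth medium with 1 mg/mL G418 but no IL-3, and MV-4-11 cells at 25,000 cells/well; plates were left overnight at 37 °C. Compounds were added as an 8-point 1:3 series with a top concentration of 10 μM and incubated 3 days. IC50 was taken from ATPlite luminescence.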

Chain of CYP2C9 (P11712 whole entry): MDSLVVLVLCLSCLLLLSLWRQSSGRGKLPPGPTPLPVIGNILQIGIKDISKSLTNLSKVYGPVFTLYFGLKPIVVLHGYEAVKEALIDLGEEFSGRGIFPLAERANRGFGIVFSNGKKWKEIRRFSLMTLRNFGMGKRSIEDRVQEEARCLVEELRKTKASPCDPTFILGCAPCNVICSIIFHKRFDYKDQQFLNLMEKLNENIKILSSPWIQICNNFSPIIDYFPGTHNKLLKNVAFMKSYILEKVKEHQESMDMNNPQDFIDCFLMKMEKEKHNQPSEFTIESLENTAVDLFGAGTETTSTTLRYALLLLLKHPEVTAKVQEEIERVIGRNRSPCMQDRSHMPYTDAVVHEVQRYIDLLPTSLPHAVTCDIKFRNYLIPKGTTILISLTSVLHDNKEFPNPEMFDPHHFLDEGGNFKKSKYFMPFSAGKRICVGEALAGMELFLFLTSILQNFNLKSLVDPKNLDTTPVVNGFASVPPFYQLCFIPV
T1 sequence (Q16620 538-807): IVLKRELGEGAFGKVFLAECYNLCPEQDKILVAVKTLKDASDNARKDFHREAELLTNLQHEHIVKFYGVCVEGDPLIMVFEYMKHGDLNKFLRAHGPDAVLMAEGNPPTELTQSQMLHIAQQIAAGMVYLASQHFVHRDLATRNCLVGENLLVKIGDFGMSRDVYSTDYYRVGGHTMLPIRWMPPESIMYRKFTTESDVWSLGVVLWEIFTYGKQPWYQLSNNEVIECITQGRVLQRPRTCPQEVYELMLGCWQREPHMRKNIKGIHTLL

Row | IC50 (CYP2C9) [µM] | IC50 (BCR-NTRK2 BaF3 cells) [µM] | SMILES
1 | < 5 | < 0.01 | CCc1ccc(Nc2ccc(C(=O)c3c[nH]c4ncnc(NCC(F)(F)F)c34)c(F)n2)cn1 [Compound P-4120, [6-[(6-ethyl-3-pyridyl)amino]-2-fluoro-3-pyridyl]-[4-(2,2,2-trifluoroethylamino)-7H-pyrrolo[2,3-d]pyrimidin-5-yl]methanone]
2 | > 10 | < 0.01 | CCc1ccc(Nc2ccc(C(=O)c3c[nH]c4ncnc(NCC(C)C)c34)c(F)n2)cn1 [Compound P-4121, [6-[(6-ethyl-3-pyridyl)amino]-2-fluoro-3-pyridyl]-[4-(isobutylamino)-7H-pyrrolo[2,3-d]pyrimidin-5-yl]methanone]
3 | 5 to 10 | < 0.01 | CCCNc1ncnc2[nH]cc(C(=O)c3ccc(Nc4ccc(CC)nc4)nc3F)c12 [Compound P-4122, [6-[(6-ethyl-3-pyridyl)amino]-2-fluoro-3-pyridyl]-[4-(propylamino)-7H-pyrrolo[2,3-d]pyrimidin-5-yl]methanone]
4 | > 10 | < 0.01 | CCNc1ncnc2[nH]cc(C(=O)c3ccc(Nc4ccc(CC)nc4)nc3F)c12 [Compound P-4123, [4-(ethylamino)-7H-pyrrolo[2,3-d]pyrimidin-5-yl]-[6-[(6-ethyl-3-pyridyl)amino]-2-fluoro-3-pyridyl]methanone]
5 | < 5 | < 0.01 | CCc1ccc(Nc2ccc(C(=O)c3c[nH]c4ncnc(NC)c34)c(F)n2)cn1 [Compound P-4124, [6-[(6-ethyl-3-pyridyl)amino]-2-fluoro-3-pyridyl]-[4-(methylamino)-7H-pyrrolo[2,3-d]pyrimidin-5-yl]methanone]
6 | > 10 | < 0.01 | CCc1ccc(Nc2ccc(C(=O)c3c[nH]c4ncnc(NC5CC5)c34)c(F)n2)cn1 [Compound P-4125, [4-(cyclopropylamino)-7H-pyrrolo[2,3-d]pyrimidin-5-yl]-[6-[(6-ethyl-3-pyridyl)amino]-2-fluoro-3-pyridyl]methanone]
7 | > 10 | < 0.01 | COc1ccc(Nc2ccc(C(=O)c3c[nH]c4ncnc(NC5CC5)c34)c(F)n2)cn1 [Compound P-4126, [4-(cyclopropylamino)-7H-pyrrolo[2,3-d]pyrimidin-5-yl]-[2-fluoro-6-[(6-methoxy-3-pyridyl)amino]-3-pyridyl]methanone]
8 | > 10 | < 0.1 | Fc1cc(Cc2c[nH]c3ncnc(NC4CC4)c23)cnc1NC1CCC(F)(F)CC1 [Compound P-4127, N-cyclopropyl-5-[[6-[(4,4-difluorocyclohexyl)amino]-5-fluoro-3-pyridyl]methyl]-7H-pyrrolo[2,3-d]pyrimidin-4-amine]
